According to patent US4400510A, “A-32256 Phenazine antibiotic” (Eli Lilly and Company, priority 1981, dated 1983):
Converted amounts (≈) assume the structure as drawn. “Also recorded” adds a separate entry of the source.

What was measured:
[1] = system: B. corrodens; assay: agar-dilution MIC vs. Bacteroides species; format: cell-based; conditions: B. corrodens 1874; 24 hours; Table 8
Experimental: (§1) The agar-dilution procedure described by the International Collaborative Study (ICS) group was used to determine MIC values.
(§2) The MIC values were determined by the agar-dilution method, the endpoints being read 24 hours after incubation, and are recorded in Table 8, which follows.

[2] = system: B. thetaiotaomicron; assay: agar-dilution MIC vs. Bacteroides species; format: cell-based; conditions: 24 hours, Table 8
Experimental: as §1, §2

[3] = system: Bacteroides fragilis; assay: agar-dilution MIC vs. Bacteroides species; format: cell-based; conditions: 24 hours, Table 8
Experimental: as §1, §2

[4] = system: Propionibacterium acnes; assay: agar-dilution MIC vs. anaerobic bacteria; format: cell-based; conditions: strain 79; Table 6
[5] = system: Fusobacterium necrophorum; assay: agar-dilution MIC vs. anaerobic bacteria; format: cell-based; conditions: Fusobacterium necrophorum; strain 6054A; Table 6; read-out: MIC
[6] = system: Clostridium perfringens; assay: microbe, parasite or virus in culture; format: cell-based; conditions: Clostridium perfringens, strain 81; Table 6
[7] = solubility; format: physicochemical
[8] = improvement of ruminant feed efficiency; format: in vivo
Experimental: Suitable rates of administration are in the range of from about 10 to about 100 g/ton (from about 11 to about 111 ppm) of feed, or from about 0.25 mg to about 2.9 mg/kg of body weight of the ruminant. The preferred level of administration of A-32256 is from about 0.5 to about 1 mg/kg of body weight of ruminant, or about 50 g/ton of feed.

[9] = system: Actinomyces israellii; assay: agar-dilution MIC vs. anaerobic bacteria; format: cell-based; conditions: strain W855; Table 6
Experimental: as §1
(§3) The MIC was determined by the agar-dilution method.

[10] = system: Bacteroides thetaiotaomicron; assay: agar-dilution MIC vs. anaerobic bacteria; format: cell-based
Experimental: as §1, §3

[11] = system: Peptococcus prevoti; assay: agar-dilution MIC vs. anaerobic bacteria; format: cell-based
Experimental: as §1, §3

[12] = system: Clostridium septicum; assay: agar-dilution MIC vs. anaerobic bacteria; format: cell-based; conditions: strain 1128, Table 6
Experimental: as §1, §3

## Cc1cccc(O)c1C(=O)OC(C)c1cccc2nc3c(C(=O)O)cccc3nc12 (stereo not drawn) [Antibiotic A-32256, 6-[1-[(2-hydroxy-6-methylbenzoyl)oxy]-ethyl]-1-phenazinecarboxylic acid]
[1]
  MIC: 0.25 µg/mL (≈ 0.621 µM)
[2]; B. thetaiotaomicron 1438
  MIC: 1.0 µg/mL (≈ 2.49 µM)
[2]; B. thetaiotaomicron 1900A
  MIC: 1.0 µg/mL (≈ 2.49 µM)
[3]; B. fragilis 2
  MIC: 1.0 µg/mL (≈ 2.49 µM)
[3]; B. fragilis 9
  MIC: 1.0 µg/mL (≈ 2.49 µM)
[3]; B. fragilis 62
  MIC: 1.0 µg/mL (≈ 2.49 µM)
[3]; B. fragilis 103
  MIC: 0.5 µg/mL (≈ 1.24 µM)
[3]; B. fragilis 104
  MIC: 1.0 µg/mL (≈ 2.49 µM)
[3]; B. fragilis 106
  MIC: 0.5 µg/mL (≈ 1.24 µM)
[3]; B. fragilis 107
  MIC: 2 µg/mL (≈ 4.97 µM)
[3]; B. fragilis 108
  MIC: 1.0 µg/mL (≈ 2.49 µM)
[3]; B. fragilis 110
  MIC: 0.5 µg/mL (≈ 1.24 µM)
[3]; B. fragilis 111
  MIC: 1.0 µg/mL (≈ 2.49 µM)
[3]; B. fragilis 112
  MIC: 0.5 µg/mL (≈ 1.24 µM)
[3]; B. fragilis 113
  MIC: 1.0 µg/mL (≈ 2.49 µM)
[3]; B. fragilis 1470
  MIC: 0.5 µg/mL (≈ 1.24 µM)
[3]; B. fragilis 1877
  MIC: 1.0 µg/mL (≈ 2.49 µM)
[3]; V. fragilis 1451 (so in the source)
  MIC: 2 µg/mL (≈ 4.97 µM)
[4]
  MIC: 2 µg/mL (≈ 4.97 µM)
[5]
  MIC: 1 µg/mL (≈ 2.49 µM)
[6]
  MIC: 2 µg/mL (≈ 4.97 µM)
[7]; acetone
  solubility: moderately soluble
[7]; alkaline aqueous solutions
  solubility: soluble
[7]; chloroform
  solubility: easily soluble
[7]; cyclohexane
  solubility: sparingly soluble
[7]; dimethyl sulfoxide
  solubility: moderately soluble
[7]; dioxane
  solubility: moderately soluble
[7]; ethanol
  solubility: sparingly soluble
[7]; ethyl acetate
  solubility: moderately soluble
[7]; hexane
  solubility: sparingly soluble
[7]; methanol
  solubility: sparingly soluble
[7]; pyridine
  solubility: easily soluble
[7]; tetrahydrofuran
  solubility: easily soluble
[7]; water
  solubility: not water soluble; also recorded: insoluble
[8]
  improvement of ruminant feed efficiency: has shown utility for the improvement of ruminant feed efficiency
[9]
  MIC: 16 µg/mL (≈ 39.8 µM)
[10]
  MIC: ≤ 0.5 µg/mL
[11]
  MIC: ≤ 0.5 µg/mL
[12]
  MIC: ≤ 0.5 µg/mL
